Measured values as given in patent publication US20240174647A1 (NEURON23, INC., priority 2022, published 2024).

target: wt human LRRK2, catalytic site (Homo sapiens (Human), UniProt Q5S007); test: TR-FRET LanthaScreen Tb Kinase Activity Assay (LRRK2 kinase inhibition); type: biochemical; conditions: 2 nM wt human LRRK2, 400 nM fluorescein-ERM (LRRKtide) peptide, 38 μM ATP, 120 minutes at room temperature
In short: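 LanthaScreen TR-FRET with 2 nM wt human LRRK2 catalytic site, 400 nM fluorescein-ERM (LRRKtide) peptide and 38 µM ATP in Kinase Buffer A; 120 min at room temperature. Phosphorylation detected with EDTA and Tb-anti-pLRRKtide after 60 min; IC50 from emission ratios.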

wt human LRRK2, catalytic site, sequence (Q5S007 1879-2138): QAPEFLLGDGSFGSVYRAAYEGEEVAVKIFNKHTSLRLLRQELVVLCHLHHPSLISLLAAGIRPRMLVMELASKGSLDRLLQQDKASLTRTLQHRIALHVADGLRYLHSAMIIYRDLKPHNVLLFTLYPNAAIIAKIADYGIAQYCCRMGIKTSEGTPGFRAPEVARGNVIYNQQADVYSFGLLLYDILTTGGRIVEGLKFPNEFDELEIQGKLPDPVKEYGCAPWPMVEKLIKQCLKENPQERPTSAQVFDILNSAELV

Compound | IC50
CCn1ncc2c(Nc3ncc(C(F)(F)F)c(NC)n3)cccc21 [Example 98, N2-(1-ethyl-1H-indazol-4-yl)-N4-methyl-5-(trifluoromethyl)pyrimidine-2,4 diamine] | < 0.05 µM
CCn1ncc2c(Nc3ncc(C(F)(F)F)c(NC4CC4)n3)cccc21 [Example 99, N4-cyclopropyl-N2-(1-ethyl-1H-indazol-4-yl)-5-(trifluoromethyl)pyrimidine-2,4-diamine] | < 0.05 µM
CNc1nc(Nc2ccc(C3=CCN(C)CC3)c3c2cnn3CC(N)=O)ncc1C(F)(F)F [Example 100, 2-(7-(1-methyl-1,2,3,6-tetrahydropyridin-4-yl)-4-((4-(methylamino)-5-(trifluoromethyl)pyrimidin-2-yl)amino)-1H-indazol-1-yl)acetamide] | < 0.05 µM
CNc1nc(Nc2cccc3c2cnn3S(C)(=O)=O)ncc1C(F)(F)F [Example 101] | < 0.05 µM
CS(=O)(=O)n1ncc2c(Nc3ncc(C(F)(F)F)c(NC4CC4)n3)cccc21 [Example 102, N4-cyclopropyl-N2-(1-(methylsulfonyl)-1H-indazol-4-yl)-5-(trifluoromethyl)pyrimidine-2,4-diamine] | < 0.05 µM
CC(C)(C#N)n1ncc2c(Nc3ncc(C(F)(F)F)c(NC4CC4)n3)cccc21 [Example 103, 2-(4-((4-(cyclopropylamino)-5-(trifluoromethyl)pyrimidin-2-yl)amino)-1H-indazol-1-yl)-2-methylpropanenitrile] | < 0.05 µM
N#CCn1ncc2c(Nc3ncc(C(F)(F)F)c(NCC4CC4)n3)cccc21 [Example 104, 2-(4-((4-((cyclopropylmethyl)amino)-5-(trifluoromethyl)pyrimidin-2-yl)amino)-1H-indazol-1-yl)acetonitrile] | < 0.05 µM
CC1(Nc2nc(Nc3cccc4c3cnn4CC#N)ncc2C(F)(F)F)CC1 [Example 105, 2-(4-((4-((1-methylcyclopropyl)amino)-5-(trifluoromethyl)pyrimidin-2-yl)amino)-1H-indazol-1-yl)acetonitrile] | < 0.05 µM
N#CCn1ncc2c(Nc3ncc(C(F)(F)F)c(NCC(F)(F)F)n3)cccc21 [Example 106, 2-(4-((4-((2,2,2-trifluoroethyl)amino)-5-(trifluoromethyl)pyrimidin-2-yl)amino)-1-indazol-1-yl)acetonitrile] | < 0.05 µM
CN(C)c1nc(Nc2cccc3c2cnn3CC#N)ncc1C(F)(F)F [Example 107, 2-(4-((4-(dimethylamino)-5-(trifluoromethyl)pyrimidin-2-yl)amino)-1H-indazol-1-yl)acetonitrile] | < 0.05 µM
CC(C)Nc1nc(Nc2cccc3c2cnn3C(C)(C)C#N)ncc1C(F)(F)F [Example 108, 2-(4-((4-(isopropylamino)-5-(trifluoromethyl)pyrimidin-2-yl)amino)-1H-indazol-1-yl)-2-methylpropanenitrile] | < 0.05 µM
CNc1nc(Nc2ccc(C3CCN(C)CC3)c3c2cnn3CC#N)ncc1C(F)(F)F [Example 109, 2-(4-((4-(methylamino)-5-(trifluoromethyl)pyrimidin-2-yl)amino)-7-(1-methylpiperidin-4-yl)-1H-indazol-1-yl)acetonitrile] | < 0.05 µM
CC(C)Nc1nc(Nc2cccc3c2cnn3CC#N)ncc1C(F)(F)F [Example 110, 2-(4-((4-(isopropylamino)-5-(trifluoromethyl)pyrimidin-2-yl)amino)-1H-indazol-1-yl)acetonitrile] | ≥ 0.2 µM
CNc1nc(Nc2ccc(Cl)c3c2cnn3CC#N)ncc1C(F)(F)F [Example 111, 2-(7-chloro-4-((4-(methylamino)-5-(trifluoromethyl)pyrimidin-2-yl)amino)-1H-indazol-1-yl)acetonitrile] | < 0.05 µM
CC(C)(C#N)n1ncc2c(Nc3ncc(C(F)(F)F)c(NCC(F)(F)F)n3)cccc21 [Example 112, 2-methyl-2-(4-((4-((2,2,2-trifluoroethyl)amino)-5-(trifluoromethyl)pyrimidin-2-yl)amino)-1H-indazol-1-yl)propanenitrile] | < 0.05 µM
CC(C)(C#N)n1ncc2c(Nc3ncc(C(F)(F)F)c(NC4CCC4)n3)cccc21 [Example 113, 2-(4-((4-(cyclobutylamino)-5-(trifluoromethyl)pyrimidin-2-yl)amino)-1H-indazol-1-yl)-2-methylpropanenitrile] | < 0.05 µM
CNc1nc(Nc2cc3[nH]ncc3cc2F)ncc1C(F)(F)F [Example 114, N^2-(5-fluoro-1H-indazol-6-yl)-N^4-methyl-5-(trifluoromethyl)pyrimidine-2,4-diamine] | < 0.05 µM
CNc1nc(Nc2ccnc3ccnn23)ncc1C(F)(F)F [Example 115, N^4-methyl-N^2-pyrazolo[1,5-a]pyrimidin-7-yl-5-(trifluoromethyl)pyrimidine-2,4-diamine] | ≥ 0.2 µM
CNc1nc(Nc2cc3[nH]ncc3cc2Cl)ncc1C(F)(F)F [Example 116] | < 0.05 µM
CNc1nc(Nc2ncn3ccccc23)ncc1C(F)(F)F [Example 117, N^2-(imidazo[1,5-a]pyridin-1-yl)-N4-methyl-5-(trifluoromethyl)pyrimidine-2,4-diamine] | ≥ 0.2 µM
CNc1nc(Nc2cnn3ccc(C#N)cc23)ncc1C(F)(F)F [Example 118, 3-[[4-(methylamino)-5-(trifluoromethyl)pyrimidin-2-yl]amino]pyrazolo[1,5-a]pyridine-5-carbonitrile] | < 0.05 µM
CNc1nc(Nc2cnn3cc(C#N)ccc23)ncc1C(F)(F)F [Example 119, 3-((4-(methylamino)-5-(trifluoromethyl)pyrimidin-2-yl)amino)pyrazolo[1,5-a]pyridine-6-carbonitrile] | < 0.05 µM
C=Cc1cc2cn[nH]c2cc1Nc1ncc(C(F)(F)F)c(NC)n1 [Example 120, N^4-methyl-5-(trifluoromethyl)-N^2-(5-vinyl-1H-indazol-6-yl)pyrimidine-2,4-diamine] | 0.05 to 0.2 µM
CNc1nc(Nc2cccc3nccn23)ncc1C(F)(F)F [Example 121, N^2-imidazo[1,2-a]pyridin-5-yl-N^4-methyl-5-(trifluoromethyl)pyrimidine-2,4-diamine] | ≥ 0.2 µM
CCc1cc2cn[nH]c2cc1Nc1ncc(C(F)(F)F)c(NC)n1 [Example 122, N2-(5-ethyl-1H-indazol-6-yl)-N4-methyl-5-(trifluoromethyl)pyrimidine-2,4-diamine] | 0.05 to 0.2 µM
CNc1nc(Nc2cc3[nH]ncc3cc2C(F)(F)F)ncc1C(F)(F)F [Example 123, N^4-methyl-5-(trifluoromethyl)-N^2-[5-(trifluoromethyl)-1H-indazol-6-yl]pyrimidine-2,4-diamine] | ≥ 0.2 µM
CNc1nc(Nc2cccc3nncn23)ncc1C(F)(F)F [Example 124, N^4-methyl-N^2-([1,2,4]triazolo[4,3-a]pyridin-5-yl)-5-(trifluoromethyl) pyrimidine-2,4-diamine] | ≥ 0.2 µM
CNc1nc(Nc2cn(C)c3ncncc23)ncc1C(F)(F)F [Example 125, 4-methyl-N2(7-methylpyrrolo[2,3-d]pyrimidin-5-yl)-5-(trifluoromethyl) pyrimidine-2,4-diamine] | < 0.05 µM
CNc1nc(Nc2ccc3cnccn23)ncc1C(F)(F)F [Example 126, N^4-methyl-N^2-pyrrolo[1,2-a]pyrazin-6-yl-5-(trifluoromethyl)pyrimidine-2,4-diamine] | ≥ 0.2 µM
